Results: patent publication US12016922B2, “Stabilized aqueous antibody compositions” (Arecor Limited, priority 2012, dated 2024)

Key:
[1] = test system: rituximab; test: Aggregation of rituximab formulations on storage, % HMWS by size exclusion chromatography; assay type: physicochemical; conditions: for % HMWS 0 weeks / % HMWS 12 weeks / % HMWS 8 weeks / % HMWS T0: rituximab 100 mg/ml; for % HMWS 8 weeks / % HMWS T0: trehalose 200 mM
Experimental: Formulations of protein therapeutics, rituximab and certolizumab pegol, were prepared either in the absence or in the presence of various oligomers of ethyleneimine. The following products were used as the starting material: MabThera® (rituximab) and Cimzia® (certolizumab pegol). The compositions of the two products are as follows:
(§1) In order to prepare the formulations for testing, it was necessary to remove the original excipients and replace them with the selected excipients. The following procedure was used to prepare the formulations for testing: Original compositions were removed from the manufacturer's container and dialysed in 3.5 kDa cut-off dialysis cassettes (Thermo Pierce) at 2-8° C., using three changes for a minimum of 4 hours in each, including one overnight incubation.
(§2) The background solutions, containing the new excipients and adjusted to the required pH, were added to the dialysed proteins to achieve the required concentration of excipients and the protein in the final composition. The formulated samples were placed into storage at 40° C. or at 5° C., and stability was tested after a given period of time. The stability of the proteins was tested in compositions containing oligomers of ethyleneimine and compared to a ‘Control formulation’ with identical background in the absence of the oligomers.
The amount of high molecular weight species is measured using a 300×7.8 mm S3000 (or equivalent) size-exclusion column with a guard column. The mobile phase is potassium phosphate pH 6.5, with a flow rate of 0.4 ml/min, injection volume of 1 μl and detected at 210 and 280 nm. The results are expressed as % high molecular species (HMWS), i.e. sum of all peak areas corresponding to aggregated protein over the sum of all protein-related peaks on the chromatogram. […] However, within a given time-point the samples are tested using the column in the same condition, so the values generated within the time-point represent a very good indication of the relative stability of the protein in the compositions tested.
(§3) Rituximab was formulated at 100 mg/ml in the following background solution: EDTA (0.2 mM), methionine (1 mM), histidine (10 mM). The pH was adjusted to 6.5.
Rituximab was formulated at 100 mg/ml in the following background solution: EDTA (0.2 mM), methionine (1 mM), histidine (10 mM), in the presence of arginine (80 mM) as a tonicity modifier. The pH of all formulations was adjusted to 6.5. For comparison, the formulation of commercial liquid rituximab product (‘Original formulation’ also with rituximab at 100 mg/ml) was also included.
Rituximab was formulated at 100 mg/ml in the following background solution: EDTA (0.2 mM), methionine (1 mM) histidine (10 mM) and trehalose (200 mM). The pH was adjusted to 6.5.
Rituximab was formulated at 140 mg/ml in the following background solution: EDTA (0.2 mM), methionine (1 mM), histidine (10 mM) and trehalose (200 mM). The pH was adjusted to 6.5.

[2] = test system: rituximab; test: Visual assessment of rituximab formulations on storage; assay type: physicochemical; conditions: rituximab 100 mg/ml, trehalose 200 mM
Experimental: as §1, §2
Vials are placed in a suitable location with a suitably selected contrasting background, and under sufficient and appropriate illumination to highlight any potential or detected visual deviations. A control (or freshly prepared material) is placed alongside for direct comparison. Solutions are classed as clear if there are no visual imperfections; as cloudy if there is a significant change in the opacity of the material; and if there are insoluble fractions, or if particles are visible towards the bottom of the vial, a precipitate is deemed to have been formed.
as §3

[3] = arginine 80 mM, pH 6.5, 40° C., additive 0.1 mg/ml
[4] = arginine 80 mM, pH 6.5, 40° C., additive 0.5 mg/ml
[5] = arginine 80 mM, pH 6.5, 40° C., additive 2.5 mg/ml
[6] = pH 6.5, 5° C., additive 0.1 mg/ml
[7] = pH 6.5, 5° C., additive 0.5 mg/ml
[8] = pH 6.5, 5° C., additive 2.5 mg/ml
[9] = pH 6.5, 40° C., additive 0.1 mg/ml
[10] = pH 6.5, 40° C., additive 0.5 mg/ml
[11] = pH 6.5, 40° C., additive 2.5 mg/ml

For `Cl.Cl.Cl.Cl.Cl.NCCNCCNCCNCCN` [Tetraethylenepentamine, tetraethylenepentamine pentahydrochloride], the “effect on the rate of formation of HMWS” value ([1]; Example 1: rituximab 100 mg/ml, trehalose, pH 6.5, 40° C. and 5° C.) was “reduce considerably the rate of formation of HMWS”, the “effect on the rate of formation of HMWS” value ([1]; Example 3: rituximab 100 mg/ml, arginine 80 mM, pH 6.5, 40° C., compared with background solutions without oligomer) was “reduce considerably the rate of formation of HMWS” and the “% HMWS 0 weeks” value [1, 3] was 1.58%. For the same compound, the “% HMWS 12 weeks” value [1, 3] was 2.08%, the “% HMWS 0 weeks” value [1, 4] was 1.53% and the “% HMWS 12 weeks” value [1, 4] was 1.89%. The “% HMWS 0 weeks” value [1, 5] was 1.47%, the “% HMWS 12 weeks” value [1, 5] was 0.85% and the “% HMWS 8 weeks” value [1, 6] was 1.23%. The “% HMWS T0” value [1, 6] was 1.40%, the “% HMWS 8 weeks” value [1, 7] was 1.22% and the “% HMWS T0” value [1, 7] was 1.44%. For the same compound, the “% HMWS 8 weeks” value [1, 8] was 1.21%, the “% HMWS T0” value [1, 8] was 1.40% and the “% HMWS 8 weeks” value [1, 9] was 1.79%. The “% HMWS T0” value [1, 9] was 1.40%, the “% HMWS 8 weeks” value [1, 10] was 1.85% and the “% HMWS T0” value [1, 10] was 1.44%. For the same compound, the “% HMWS 8 weeks” value [1, 11] was 1.45%, the “% HMWS T0” value [1, 11] was 1.40% and the “Visual (8 weeks)” value [2, 6] was “Clear”. The “Visual (8 weeks)” value [2, 7] was “Clear”, the “Visual (8 weeks)” value [2, 8] was “Clear” and the “Visual (8 weeks)” value [2, 9] was “Clear”. For the same compound, the “Visual (8 weeks)” value [2, 10] was “Clear” and the “Visual (8 weeks)” value [2, 11] was “Clear”.
